Laboratory results from patent US20140357487A1, “PLANTS HAVING INCREASED TOLERANCE TO HERBICIDES” (BASF SE, priority 2011, published 2014).

What was measured:
Sorghum HPPD = assay: HPPD activity assay, Sorghum HPPD; type: biochemical; details: normalized on Arabidopsis wild-type HPPD
Method: HPPD produces homogentisic acid and CO2 from 4-hydroxyphenylpyruvate (4-HPP) and O2. The activity assay for HPPD is based on the analysis of homogentisic acid by reversed phase HPLC.
The assay mixture can contain 150 mM potassium phosphate buffer pH 7.0, 50 mM L-ascorbic acid, 1 μM FeSO4 and 7 μg of purified enzyme in a total volume of 1 ml.
Inhibitors are dissolved in DMSO (dimethylsulfoxide) to a concentration of 20 mM or 0.5 mM, respectively. From this stock solution serial five-fold dilutions are prepared in DMSO, which are used in the assay. The respective inhibitor solution accounts for 1% of the assay volume. Thus, final inhibitor concentrations range from 200 μM to 2.5 nM or from 5 μM to 63 pM, respectively. After a preincubation of 30 min the reaction is started by adding 4-HPP to a final concentration of 0.1 mM. The reaction is allowed to proceed for 120 min at room temperature. The reaction is stopped by addition of 100 μl of 4.5 M phosphoric acid.
Activities are normalized by setting the uninhibited enzyme activity to 100%. IC50 values are calculated using non-linear regression.
The assay mixture can contain 150 mM potassium phosphate buffer pH 7.0, 50 mM L-ascorbic acid, 100 μM Catalase (Sigma-Aldrich), 1 μM FeSO4 and 0.2 units of purified HPPD enzyme in a total volume of 505 μl. […]
Inhibitors are dissolved in DMSO (dimethylsulfoxide) to a concentration of 0.5 mM. […] IC50 values are calculated using non-linear regression.
Using methods which are described in the above examples or well known in the art, purified, recombinant wildtype HPPD enzymes are characterized with respect to their kinetic properties and sensitivity towards HPPD inhibiting herbicides. Apparent michaelis constants (Km) and maximal reaction velocities (Vmax) are calculated by non-linear regression with the software GraphPad Prism 5 (GraphPad Software, La Jolla, USA) using a substrate inhibition model. […] Weighted means (by standard error) of Km and […] values are calculated from at least three independent experiments. […]

[1] = tested on: transgenic soybean plants, Arabidopsis P336A E363Q I393L L385V, event SDS-9999; assay: Greenhouse testing of transgenic soybean plants, Arabidopsis P336A E363Q I393L L385V; type: in vivo, Glycine max; details: soybean SDS-9999, 5 days after herbicide treatment, average of 8 T1
Description: (§1) Various methods for the production of stably transformed plants are well known in the art. Coumarone-derivative herbicide tolerant soybean (Glycine max) or corn (Zea mays) plants can be produced by a method described by Olhoft et al. (US patent 2009/0049567). Briefly, HPPD or HST encoding polynucleotides are cloned into a binary vector using standard cloning techniques as described by Sambrook et al. (Molecular cloning (2001) Cold Spring Harbor Laboratory Press). The final vector construct contains an HPPD or HST encoding sequence flanked by a promoter sequence (e.g. the ubiquitin promoter (PcUbi) sequence) and a terminator sequence (e.g. the nopaline synthase terminator (NOS) sequence) and a resistance marker gene cassette (e.g. AHAS) (FIG. 2). Optionally, the HPPD or HST gene can provide the means of selection. Agrobacterium-mediated transformation is used to introduce the DNA into soybean's axillary meristem cells at the primary node of seedling explants. After inoculation and co-cultivation with Agrobacteria, the explants are transferred to shoot induction medium without selection for one week. The explants are subsequently transferred to shoot induction medium with 1-3 μM imazapyr (Arsenal) for 3 weeks to select for transformed cells. Explants with healthy callus/shoot pads at the primary node are then transferred to shoot elongation medium containing 1-3 μM imazapyr until a shoot elongates or the explant dies. After regeneration, transformants are transplanted to soil in small pots, placed in growth chambers (16 hr day/8 hr night; 25° C. day/23° C. night; 65% relative humidity; 130-150 mE m−2 s−1) and subsequently tested for the presence of the T-DNA via Taqman analysis. After a few weeks, healthy, transgenic positive, single copy events are transplanted to larger pots and allowed to grow in the growth chamber. Transformation of corn plants is done by a method described by McElver and Singh (WO 2008/124495). Plant transformation vector constructs containing HPPD or HST sequences are introduced into maize immature embryos via Agrobacterium-mediated transformation. Transformed cells are selected in selection media supplemented with 0.5-1.5 μM imazethapyr for 3-4 weeks. Transgenic plantlets are regenerated on plant regeneration media and rooted afterwards. Transgenic plantlets are subjected to TaqMan analysis for the presence of the transgene before being transplanted to potting mixture and grown to maturity in greenhouse. Arabidopsis thaliana is transformed with HPPD or HST sequences by floral dip method as described by McElver and Singh (WO 2008/124495). Transgenic Arabidopsis plants are subjected to Tag Man analysis for analysis of the number of integration loci. Transformation of Oryza sativa (rice) are done by protoplast transformation as described by Peng et al. (U.S. Pat. No. 6,653,529)
(§2) Transgenic plants expressing heterologous HPPD or HST enzymes are tested for tolerance against coumarone-derivative herbicides in greenhouse experiments.
(§3) For post emergence treatment, the test plants are first grown to a height of 3 to 15 cm, depending on the plant habit, and only then treated with the herbicides. For this purpose, the test plants are either sown directly and grown in the same containers, or they are first grown separately and transplanted into the test containers a few days prior to treatment.
(§4) Depending on the species, the plants are kept at 10-25° C. or 20-35° C. The test period extends over 3 weeks. During this time, the plants are tended and their response to the individual treatments is evaluated. […] Tolerance to coumarone-derivative herbicides can also be assessed in Arabidopsis. In this case transgenic Arabidopsis thaliana plants are assayed for improved tolerance to coumarone-derivative herbicides in 48-well plates. Seeds are surface sterilized by stirring for 5 min in ethanol+water (70+30 by volume), rinsing one time with ethanol+water (70+30 by volume) and two times with a sterile, deionized water. […]

[2] = tested on: transgenic corn plants, Arabidopsis M335H, event SDM-71923; assay: Greenhouse testing of transgenic corn plants, Arabidopsis M335H; type: in vivo, Zea mays; details: corn SDM-71923, 5 days after herbicide treatment, average of 8 T1
Description: as §1, §2, §3, §4

SMILES | Normalized tolerance index TI (Sorghum HPPD) | Injury evaluation, scale of 1-100, bleaching phenotype ([1]; 2.5 g/ha) | Injury evaluation, scale of 1-100, bleaching phenotype ([1]; 10 g/ha) | Injury evaluation, scale of 1-100, bleaching phenotype ([1]; 40 g/ha) | Injury evaluation, scale of 1-100, bleaching phenotype ([2]; 2.5 g/ha) | Injury evaluation, scale of 1-100, bleaching phenotype ([2]; 10 g/ha) | Injury evaluation, scale of 1-100, bleaching phenotype ([2]; 40 g/ha) | Injury evaluation, scale of 1-100, bleaching phenotype ([1]; 6.25 g/ha) | Injury evaluation, scale of 1-100, bleaching phenotype ([1]; 25 g/ha) | Injury evaluation, scale of 1-100, bleaching phenotype ([1]; 100 g/ha) | Injury evaluation, scale of 1-100, bleaching phenotype ([2]; 6.25 g/ha) | Injury evaluation, scale of 1-100, bleaching phenotype ([2]; 25 g/ha) | Injury evaluation, scale of 1-100, bleaching phenotype ([2]; 100 g/ha)
CC1=NOC(c2c(Cl)ccc(C3=C(O)c4ncccc4C(C)(C)S3(=O)=O)c2Cl)C1 (centres unmarked) [Inhibitor 1, 7-[2,4-dichloro-3-(3-methyl-4,5-dihydroisoxazol-5-yl)phenyl]-5,5-dimethyl-6,6-dioxo-thiopyrano[4,3-b]pyridin-8-ol] | 2.1 |  |  |  |  |  |  |  |  |  |  |  | 
CC1(C)c2cccnc2C(O)=C(c2ccc(Cl)nc2Cl)S1(=O)=O [Inhibitor 2, 7-(2,6-dichloro-3-pyridyl)-5,5-dimethyl-6,6-dioxo-thiopyrano[4,3-b]pyridin-8-ol] | 1.2 | 6 | 5 | 15 | 6 | 4 | 6 |  |  |  |  |  | 
Cc1c(C(=O)c2cnn(C)c2O)ccc(S(C)(=O)=O)c1C1=NOCC1 [Topramezone, reference compound] |  |  |  |  |  |  |  | 7 | 18 | 24 | 0 | 0 | 0
